Target: Histone deacetylase 2 (Homo sapiens, UniProt Q92769)
Assay: Inhibition of full-length recombinant human C-terminal GST tagged HDAC2 expressed in Sf9 insect cells using aminoluciferin peptide substrate at 100 nM preincubated for 3 hrs followed by substrate addition and measured after 30 mins by HDAC-Glo I/II chemiluminescence assay
Settings: time 3.5 hrs

Chain of Histone deacetylase 2 (Q92769 whole entry): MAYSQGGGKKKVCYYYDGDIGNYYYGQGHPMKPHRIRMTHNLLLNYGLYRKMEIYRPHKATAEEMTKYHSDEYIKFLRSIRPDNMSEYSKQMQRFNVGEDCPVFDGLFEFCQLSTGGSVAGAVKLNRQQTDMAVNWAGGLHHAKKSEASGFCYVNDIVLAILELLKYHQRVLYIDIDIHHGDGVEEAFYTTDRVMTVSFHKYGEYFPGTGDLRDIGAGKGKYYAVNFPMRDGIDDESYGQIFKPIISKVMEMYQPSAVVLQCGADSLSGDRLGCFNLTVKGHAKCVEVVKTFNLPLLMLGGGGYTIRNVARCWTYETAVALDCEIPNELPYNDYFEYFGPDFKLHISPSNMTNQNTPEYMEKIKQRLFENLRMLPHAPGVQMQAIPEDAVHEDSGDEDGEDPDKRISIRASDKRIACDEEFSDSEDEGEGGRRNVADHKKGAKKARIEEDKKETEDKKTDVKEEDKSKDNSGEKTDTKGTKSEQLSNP

Structure (SMILES) | inhibition [%]
Nc1ccc(-c2ccccc2)cc1NC(=O)CCc1cn(Cc2ccc(C(=O)O)cc2)nn1 | 27
Cc1cccc(C)c1NC(=O)Cn1cc(C(=O)Nc2cc(-c3ccc(F)cc3)ccc2N)nn1 | 33
Nc1ccc(-c2ccsc2)cc1NC(=O)CCc1cn(C[S+]([O-])c2ccccc2)nn1 (stereo unspecified) | 8
Nc1ccc(-c2cccs2)cc1NC(=O)c1cccc(-c2cn(CCc3ccc(C(=O)O)cc3)nn2)c1 | 14
Nc1ccc(-c2ccccc2)cc1NC(=O)CCc1cn(CCc2cccc3ccccc23)nn1 | 0
COc1ccc(-n2cc(C(=O)Nc3cc(-c4ccccc4)ccc3N)nn2)cc1 | 2
Nc1ccc(-c2ccccc2)cc1NC(=O)CCc1cn(CCCCC(=O)O)nn1 | 0
Nc1ccc(-c2ccc(F)cc2)cc1NC(=O)c1cn(CC(=O)c2ccccc2)nn1 | 6
Nc1ccc(-c2ccc(F)cc2)cc1NC(=O)CCc1cn(CCc2c[nH]c3ccccc23)nn1 | 30
Nc1ccc(-c2ccccc2)cc1NC(=O)c1cn(-c2ccc(O)cc2)nn1 | 0
Nc1ccc(-c2ccc(F)cc2)cc1NC(=O)CCc1cn(Cc2cc3ccccc3s2)nn1 | 3
Nc1ccc(-c2ccc(F)cc2)cc1NC(=O)CCc1cn(CCc2cccc(C(F)(F)F)c2)nn1 | 11
Nc1ccc(-c2ccc(F)cc2)cc1NC(=O)c1cn(-c2cccc3ccccc23)nn1 | 4
Nc1ccc(-c2ccsc2)cc1NC(=O)CCc1cn(CC(=O)c2ccccc2)nn1 | 12
Nc1ccc(-c2ccc(F)cc2)cc1NC(=O)CCc1cn(Cc2ccc(OC(F)(F)F)cc2)nn1 | 0
Cc1csc(CCn2cc(CCC(=O)Nc3cc(-c4ccsc4)ccc3N)nn2)n1 | 39
Nc1ccc(-c2ccc(F)cc2)cc1NC(=O)CCc1cn(CCCCCc2ccccc2)nn1 | 5
Nc1ccc(-c2ccc(F)cc2)cc1NC(=O)c1cn(-c2ccccc2-c2ccccc2)nn1 | 19
Nc1ccc(-c2ccsc2)cc1NC(=O)CCc1cn(CCc2cccc3ccccc23)nn1 | 0
Nc1ccc(-c2cccnc2)cc1NC(=O)CCc1cn(CCc2ccsc2)nn1 | 1
Nc1ccc(-c2ccc(F)cc2)cc1NC(=O)c1cn(CCc2ccc(C(=O)O)cc2)nn1 | 31
Nc1ccc(-c2cccs2)cc1NC(=O)c1ccc(-c2cn(CCc3ccc(C(F)(F)F)cc3)nn2)cc1 | 0
Nc1ccc(-c2ccsc2)cc1NC(=O)CCc1cn(CCCCCCCC(=O)O)nn1 | 1
Nc1ccc(-c2ccc(F)cc2)cc1NC(=O)c1cn(Cc2ccc(C(=O)O)cc2)nn1 | 65

Structure (SMILES) | inhibition [%]
Nc1ccc(-c2ccc(F)cc2)cc1NC(=O)c1cn(-c2ccc(O)cc2)nn1 | 15
Nc1ccc(-c2ccccc2)cc1NC(=O)c1cn(CCc2ccc(F)cc2)nn1 | 0
Nc1ccc(-c2ccccc2)cc1NC(=O)CCc1cn(CCc2ccccc2)nn1 | 24
Nc1ccc(-c2cccnc2)cc1NC(=O)CCc1cn(/C=C/c2ccccc2)nn1 | 7
Nc1ccc(-c2ccc(F)cc2)cc1NC(=O)c1cn(Cc2ccc3ccccc3c2)nn1 | 8
Nc1ccc(-c2ccc(F)cc2)cc1NC(=O)CCc1cn(-c2ccc(I)cc2)nn1 | 0
Nc1ccc(-c2ccccc2)cc1NC(=O)CCc1cn(CCc2ccc(C(F)(F)F)cc2)nn1 | 0
Nc1ccc(-c2cccnc2)cc1NC(=O)CCc1cn(CS(=O)(=O)c2ccccc2)nn1 | 4
Nc1ccc(-c2ccsc2)cc1NC(=O)c1cn(CC(=O)Nc2ccc(F)cc2)nn1 | 8
Cc1cccc(C)c1NC(=O)Cn1cc(CCC(=O)Nc2cc(-c3ccsc3)ccc2N)nn1 | 18
Nc1ccc(-c2cccnc2)cc1NC(=O)CCc1cn(Cc2ccc(Oc3ccccc3)cc2)nn1 | 0
Nc1ccc(-c2ccc(F)cc2)cc1NC(=O)CCc1cn(Cc2ccc(C(=O)O)cc2)nn1 | 39
Nc1ccc(-c2ccsc2)cc1NC(=O)CCc1cn(CCc2ccccn2)nn1 | 12
Nc1ccc(-c2ccccc2)cc1NC(=O)c1cn(CCc2ccc(Cl)cc2)nn1 | 0
Nc1ccc(-c2cccnc2)cc1NC(=O)CCc1cn(CCc2cccc(C(F)(F)F)c2)nn1 | 13
Nc1ccc(-n2cc(-c3ccc(C(=O)Nc4cc(-c5cccs5)ccc4N)cc3)nn2)cc1 | 51
Nc1ccc(-c2ccsc2)cc1NC(=O)CCc1cn(CCN2CCOCC2)nn1 | 0
COc1ccc(-n2cc(CCC(=O)Nc3cc(-c4ccsc4)ccc3N)nn2)cc1 | 12
COc1ccccc1CCn1cc(C(=O)Nc2cc(-c3ccccc3)ccc2N)nn1 | 0
Nc1ccc(-c2ccsc2)cc1NC(=O)CCc1cn(CCc2ccccc2)nn1 | 43
Nc1ccc(-c2ccsc2)cc1NC(=O)c1cn(CCc2c[nH]c3ccccc23)nn1 | 6
Nc1ccc(-c2ccc(F)cc2)cc1NC(=O)c1cn(CCc2ccccc2[N+](=O)[O-])nn1 | 12
Nc1ccc(-c2ccsc2)cc1NC(=O)CCc1cn(CCCCCCC(=O)O)nn1 | 0
Nc1ccc(-c2ccc(F)cc2)cc1NC(=O)c1cn(Cc2ccc(-c3ccccc3)cc2)nn1 | 0

The next lines start with the values.

inhibition [%] | Structure (SMILES)
0 | Cc1ccc(-n2cc(CCC(=O)Nc3cc(-c4cccs4)ccc3N)nn2)cc1C
7 | Nc1ccc(-c2cccs2)cc1NC(=O)c1cn(CCCCCCC(=O)O)nn1
5 | Nc1ccc(-c2ccsc2)cc1NC(=O)c1cn(CCCc2ccccc2)nn1
0 | Nc1ccc(-c2ccsc2)cc1NC(=O)CCc1cn(CCC2CCCCC2)nn1
3 | Nc1ccc(-c2cccs2)cc1NC(=O)CCc1cn(Cc2cccc(C(=O)O)c2)nn1
0 | Nc1ccc(-c2ccccc2)cc1NC(=O)c1cn(CCC2CCCC2)nn1
25 | COc1ccc(Cn2cc(C(=O)Nc3cc(-c4ccsc4)ccc3N)nn2)cc1
0 | Nc1ccc(-c2ccsc2)cc1NC(=O)CCc1cn(CCC23CC4CC(CC(C4)C2)C3)nn1
69 | Nc1ccc(-c2cccs2)cc1NC(=O)c1ccc(-c2cn(CCN3CCOCC3)nn2)s1
0 | Nc1ccc(-c2cccs2)cc1NC(=O)CCc1cn(CCC2CCCC2)nn1
0 | Nc1ccc(-c2cccs2)cc1NC(=O)c1cn(CCc2ccsc2)nn1
0 | Nc1ccc(-c2cccs2)cc1NC(=O)c1cn(CC23CC4CC(CC(C4)C2)C3)nn1
0 | Nc1ccc(-c2cccs2)cc1NC(=O)c1ccc(-c2cn(CCc3cccc(C(F)(F)F)c3)nn2)s1
24 | Nc1ccc(-c2cccs2)cc1NC(=O)c1ccc(-c2cn(CCc3cccc(F)c3)nn2)s1
54 | Nc1ccc(-c2cccs2)cc1NC(=O)c1ccc(-c2cn(CCCCCC(=O)O)nn2)s1
5 | Nc1ccc(-c2cccs2)cc1NC(=O)c1ccc(-c2cn(CCc3ccccc3Cl)nn2)cc1
3 | Nc1ccc(-c2cccs2)cc1NC(=O)c1cccc(-c2cn(CS(=O)(=O)c3ccccc3)nn2)c1
40 | COc1ccc(CCn2cc(-c3ccc(C(=O)Nc4cc(-c5cccs5)ccc4N)cc3)nn2)cc1
18 | Nc1ccc(-c2cccs2)cc1NC(=O)CCc1cn(CCc2c[nH]c3ccccc23)nn1
7 | Nc1ccc(-c2cccs2)cc1NC(=O)CCc1cn(CCCCCc2ccccc2)nn1
13 | Nc1ccc(-c2cccs2)cc1NC(=O)CCc1cn(CC(=O)c2ccccc2)nn1
0 | Nc1ccc(-c2cccs2)cc1NC(=O)c1cn(CCc2cccc(F)c2)nn1
17 | Nc1ccc(-c2cccs2)cc1NC(=O)c1cn(CS(=O)(=O)c2ccccc2)nn1
32 | Nc1ccc(-c2cccs2)cc1NC(=O)c1cn(Cc2ccc(C(=O)O)cc2)nn1

inhibition [%] | Structure (SMILES)
18 | Nc1ccc(-c2cccs2)cc1NC(=O)c1cn(CCN2CCc3ccccc3C2)nn1
0 | Nc1ccc(-c2ccsc2)cc1NC(=O)c1cn(CCc2ccc(Cl)cc2)nn1
7 | Cc1cccc(CCn2cc(C(=O)Nc3cc(-c4ccsc4)ccc3N)nn2)c1
24 | Cc1csc(CCn2cc(-c3cccc(C(=O)Nc4cc(-c5cccs5)ccc4N)c3)nn2)n1
3 | Nc1ccc(-c2cccs2)cc1NC(=O)c1ccc(-c2cn(Cc3ccc4ccccc4c3)nn2)s1
21 | COc1ccc(CCn2cc(CCC(=O)Nc3cc(-c4cccs4)ccc3N)nn2)cc1
61 | Nc1ccc(-c2cccs2)cc1NC(=O)c1ccc(-c2cn(CC(=O)c3ccccc3)nn2)cc1
4 | Nc1ccc(-c2cccs2)cc1NC(=O)CCc1cn(CCCCCCCC(=O)O)nn1
0 | Nc1ccc(-c2cccs2)cc1NC(=O)c1ccc(-c2cn(CCC3CCCC3)nn2)cc1
3 | Nc1ccc(-c2cccs2)cc1NC(=O)c1ccc(-c2cn(CCc3ccc(Cl)cc3)nn2)s1
0 | Nc1ccc(-c2ccsc2)cc1NC(=O)CCc1cn(CC2CCCCC2)nn1
2 | Nc1ccc(-c2cccs2)cc1NC(=O)c1cn(CCc2cccc(Cl)c2)nn1
7 | Nc1ccc(-c2cccs2)cc1NC(=O)c1ccc(-c2cn(CCC3CCCCC3)nn2)cc1
3 | Nc1ccc(-c2ccc(F)cc2)cc1NC(=O)c1cn(CC2CCCCC2)nn1
10 | Nc1ccc(-c2cccs2)cc1NC(=O)CCc1cn(CCCc2ccccc2)nn1
44 | Nc1ccc(-n2cc(-c3ccc(C(=O)Nc4cc(-c5cccs5)ccc4N)s3)nn2)cc1
2 | Nc1ccc(-c2cccs2)cc1NC(=O)c1cn(CCC23CC4CC(CC(C4)C2)C3)nn1
0 | Nc1ccc(-c2ccccc2)cc1NC(=O)CCc1cn(CCC23CC4CC(CC(C4)C2)C3)nn1
22 | Cc1ccc(CCn2cc(-c3ccc(C(=O)Nc4cc(-c5cccs5)ccc4N)s3)nn2)cc1
8 | Nc1ccc(-c2cccs2)cc1NC(=O)c1cn(Cc2cc3ccccc3s2)nn1
20 | Cc1cccc(CCn2cc(-c3ccc(C(=O)Nc4cc(-c5cccs5)ccc4N)s3)nn2)c1
0 | Nc1ccc(-c2ccccc2)cc1NC(=O)c1cn(CCCCCC(=O)O)nn1
22 | Nc1ccc(-c2cccs2)cc1NC(=O)CCc1cn(Cc2ccc3ccccc3n2)nn1
15 | Nc1ccc(-c2cccs2)cc1NC(=O)CCc1cn(-c2ccc([N+](=O)[O-])cc2)nn1
